The source of these data is PubChem BioAssay AID220 (DTP/NCI, 2004).

Several values for one entry are separate records, joined by “and”; a condition that tells them apart may be missing. Equal entries are not always repeated. Inconclusive results are not listed.

For the test, the system named is CD8F1 mice, subcutaneous mammary adenocarcinoma, T/C%. The test can be described thus: NCI In Vivo Anticancer Drug Screen. Data for tumor model Mammary Adenocarcinoma CD8F1 (subcutaneous) in CD8F1. The conditions noted are these: higher = larger tumour. The procedure, abridged: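 Tumor-bearing mice, transplantable model; readout survival or tumor size; value = treated (T) / vehicle control (C).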

Where [1] appears, read: endpoint: median tumor weight change, dose: 62.5 mg/kg/injection, schedule: Q01DX001 (ip), vehicle: saline with Tween-80.
The mark [2] stands for this setting: endpoint: median tumor weight change, dose: 125.0 mg/kg/injection, schedule: Q01DX001 (ip), vehicle: saline with Tween-80.
Setting [3] is: endpoint: median tumor weight change, dose: 250.0 mg/kg/injection, schedule: Q01DX001 (ip), vehicle: saline with Tween-80.
The mark [4] stands for this setting: endpoint: median tumor weight (est.), dose: 25.0 mg/kg/injection, schedule: Q07DX005 (ip), vehicle: Klucel (hydroxypropylcellulose) (HPC).
[5] abbreviates: endpoint: median tumor weight (est.), dose: 100.0 mg/kg/injection, schedule: Q07DX005 (ip), vehicle: Klucel (hydroxypropylcellulose) (HPC).

`Nc1c(Cl)c(Cl)nc(C(=O)O)c1Cl`: the T/C by setting is: (endpoint: mean tumor weight, dose: 6.25 mg/kg/injection, schedule: Q01DX015 (ip), vehicle: saline) 114 % of control; (endpoint: mean tumor weight, dose: 6.25 mg/kg/injection, schedule: Q07DX007 (ip), vehicle: saline) 94 % of control; (endpoint: mean tumor weight, dose: 12.5 mg/kg/injection, schedule: Q01DX015 (ip), vehicle: saline) 102 % of control; (endpoint: mean tumor weight, dose: 12.5 mg/kg/injection, schedule: Q07DX007 (ip), vehicle: saline) 102 % of control; (endpoint: mean tumor weight, dose: 25.0 mg/kg/injection, schedule: Q01DX015 (ip), vehicle: saline) 124 % of control; (endpoint: mean tumor weight, dose: 25.0 mg/kg/injection, schedule: Q07DX007 (ip), vehicle: saline) 83 % of control. In addition, the T/C (endpoint: mean tumor weight, dose: 200.0 mg/kg/injection, schedule: Q07DX006 (ip), vehicle: saline) is 64 % of control and the T/C (endpoint: mean tumor weight, dose: 300.0 mg/kg/injection, schedule: Q07DX006 (ip), vehicle: saline) was 168 % of control.
`Nc1n[n+](-c2ccccc2)no1`: the T/C by setting is: (endpoint: median tumor weight (est.), dose: 3.12 mg/kg/injection, schedule: Q07DX005 (ip), vehicle: water) 82 % of control; (endpoint: median tumor weight (est.), dose: 50.0 mg/kg/injection, schedule: Q07DX005 (ip), vehicle: water) 10 % of control and 34 % of control; (endpoint: median tumor weight change, dose: 16.0 mg/kg/injection, schedule: Q01DX001 (ip), vehicle: water) 39 % of control; (endpoint: median tumor weight change, dose: 31.0 mg/kg/injection, schedule: Q01DX001 (ip), vehicle: water) 70 % of control; (endpoint: median tumor weight change, dose: 62.0 mg/kg/injection, schedule: Q01DX001 (ip), vehicle: water) 35 % of control.
Take `C=C(C)C(=NC(C)(C)C)Nc1ccccc1`: the T/C is 92 % of control under setting [1], 60 % of control under setting [2] and 96 % of control under setting [3].
For `O=C(O)CC(=O)O.[NH-]CC[NH-].[Pt+2]`, the T/C is, setting by setting: (endpoint: median tumor weight (est.), dose: 14.06 mg/kg/injection, schedule: Q07DX005 (ip), vehicle: dextrose) 14 % of control; (endpoint: median tumor weight (est.), dose: 28.13 mg/kg/injection, schedule: Q07DX005 (ip), vehicle: dextrose) 25 % of control; (endpoint: median tumor weight (est.), dose: 56.25 mg/kg/injection, schedule: Q07DX005 (ip), vehicle: dextrose) 14 % of control; (endpoint: median tumor weight (est.), dose: 112.5 mg/kg/injection, schedule: Q07DX005 (ip), vehicle: dextrose) 13 % of control; (endpoint: median tumor weight (est.), dose: 225.0 mg/kg/injection, schedule: Q07DX005 (ip), vehicle: dextrose) 3 % of control.
For the molecule `COc1cccc2c1C(=O)c1c(O)c3c(c(O)c1C2=O)C[C@@](O)(C(=O)CO)C[C@@H]3OC1CC(N)CC(C)O1` (stereo partly specified), the T/C was 187 % of control (endpoint: median tumor weight change, dose: 1.8 mg/kg/injection, schedule: Q01DX001 (ip), vehicle: water) and 94 % of control (endpoint: median tumor weight change, dose: 3.75 mg/kg/injection, schedule: Q01DX001 (ip), vehicle: water).
On to `C=C1C(C)C2C(Cc3ccccc3)NC(=O)C23C(OC(C)=O)/C=C/C(C)(O)CC(C)C/C=C/C3C1O` (stereo unspecified), for which, for the setting “endpoint: median tumor weight change, dose: 7.5 mg/kg/injection, schedule: Q01DX001 (ip), vehicle: Klucel (hydroxypropylcellulose) (HPC)”, the T/C is 61 % of control and 66 % of control.
Turning to `O=C1C=CC(=O)N1c1ccc(Cl)cc1`, the T/C runs as follows: (endpoint: median tumor weight (est.), dose: 5.0 mg/kg/injection, schedule: Q07DX003 (ip), vehicle: Klucel (hydroxypropylcellulose) (HPC)) 65 % of control; (endpoint: median tumor weight (est.), dose: 20.0 mg/kg/injection, schedule: Q07DX003 (ip), vehicle: Klucel (hydroxypropylcellulose) (HPC)) 109 % of control.
For `COc1cc2cc(c1Cl)N(C)C(=O)CC(OC(=O)C(C)N(C)C(=O)C(C)C)C1(C)OC1C(C)C1CC(O)(NC(=O)O1)C(OC)/C=C/C=C(C)C2OC` (stereo unspecified), the T/C is 73 % of control (endpoint: median tumor weight change, dose: 16.0 micrograms/kg/injection, schedule: Q01DX001 (ip), vehicle: Klucel (hydroxypropylcellulose) (HPC)); 124 % of control (endpoint: median tumor weight change, dose: 32.0 micrograms/kg/injection, schedule: Q01DX001 (ip), vehicle: Klucel (hydroxypropylcellulose) (HPC)); 82 % of control (endpoint: median tumor weight change, dose: 64.0 micrograms/kg/injection, schedule: Q01DX001 (ip), vehicle: Klucel (hydroxypropylcellulose) (HPC)); 80 % of control (endpoint: median tumor weight change, dose: 128.0 micrograms/kg/injection, schedule: Q01DX001 (ip), vehicle: Klucel (hydroxypropylcellulose) (HPC)); 64 % of control (endpoint: median tumor weight change, dose: 256.0 micrograms/kg/injection, schedule: Q01DX001 (ip), vehicle: Klucel (hydroxypropylcellulose) (HPC)).
In the case of `C[n+]1c(/C=N/NC(N)=S)ccc2ccccc21`, the T/C under setting [1] was 108 % of control, the T/C under setting [2] was 181 % of control and the T/C under setting [3] is 77 % of control.
On to `COc1cccc2c1C(=O)c1c(O)c3c(c(O)c1C2=O)C[C@@](O)(/C(C)=N/NC(=O)c1cccc([N+](=O)[O-])c1)C[C@@H]3OC1CC(N)C(O)C(C)O1` (stereo partly specified), for which the T/C (endpoint: mean tumor weight, dose: 4.0 mg/kg/injection, schedule: Q07DX004 (ip), vehicle: saline) is 98 % of control; the T/C (endpoint: mean tumor weight, dose: 8.0 mg/kg/injection, schedule: Q07DX004 (ip), vehicle: saline) is 51 % of control; the T/C (endpoint: mean tumor weight, dose: 16.0 mg/kg/injection, schedule: Q07DX004 (ip), vehicle: saline) is 94 % of control; the T/C (endpoint: mean tumor weight, dose: 32.0 mg/kg/injection, schedule: Q07DX004 (ip), vehicle: saline) was 1 % of control; the T/C (endpoint: median tumor weight (est.), dose: 4.0 mg/kg/injection, schedule: Q07DX005 (ip), vehicle: saline) is 93 % of control; the T/C (endpoint: median tumor weight (est.), dose: 8.0 mg/kg/injection, schedule: Q07DX005 (ip), vehicle: saline) is 41 % of control. Moreover, the T/C (endpoint: median tumor weight (est.), dose: 16.0 mg/kg/injection, schedule: Q07DX005 (ip), vehicle: saline) was 5 % of control.
For the molecule `CCOc1cc2c(cc1C(C)c1ccc(OC)cc1)OCO2` (stereo unspecified), the T/C by setting is: (endpoint: median tumor weight change, dose: 62.5 mg/kg/injection, schedule: Q01DX001 (ip), vehicle: distilled water + alcohol) 102 % of control; (endpoint: median tumor weight change, dose: 125.0 mg/kg/injection, schedule: Q01DX001 (ip), vehicle: distilled water + alcohol) 62 % of control; (endpoint: median tumor weight change, dose: 250.0 mg/kg/injection, schedule: Q01DX001 (ip), vehicle: distilled water + alcohol) 67 % of control; (endpoint: median tumor weight change, dose: 500.0 mg/kg/injection, schedule: Q01DX001 (ip), vehicle: distilled water + alcohol) 91 % of control.
For `CC1(O)CC23CC(O)C4(O)C(CC(O)C4(C)C)C(C)(O)C2CCC1C3O` (stereo unspecified), the T/C is 39 % of control (endpoint: median tumor weight change, dose: 0.25 mg/kg/injection, schedule: Q01DX001 (ip), vehicle: Klucel (hydroxypropylcellulose) (HPC)) and 73 % of control (endpoint: median tumor weight change, dose: 0.5 mg/kg/injection, schedule: Q01DX001 (ip), vehicle: Klucel (hydroxypropylcellulose) (HPC)).
As to `CCN1/C(=C/C=C/C=C\C=C\c2sc3ccc4ccccc4c3[n+]2CC)Sc2ccc3ccccc3c21`, the T/C reads like this: (endpoint: median tumor weight change, dose: 25.0 mg/kg/injection, schedule: Q01DX001 (ip), vehicle: saline with Tween-80) 70 % of control and 76 % of control; (endpoint: median tumor weight change, dose: 100.0 mg/kg/injection, schedule: Q01DX001 (ip), vehicle: saline with Tween-80) 32 % of control and 53 % of control; (endpoint: median tumor weight change, dose: 200.0 mg/kg/injection, schedule: Q01DX001 (ip), vehicle: saline with Tween-80) 69 % of control.
Turning to `CC1CC(C)CC(C)C(O)/C(C#N)=C/C=C/CC(C2CCCC2C(=O)O)OC(=O)CC(O)C(C)C1` (stereo unspecified), the T/C reads like this: (endpoint: median tumor weight (est.), dose: 0.5 mg/kg/injection, schedule: Q07DX005 (ip), vehicle: Klucel (hydroxypropylcellulose) (HPC)) 71 % of control; (endpoint: median tumor weight (est.), dose: 1.0 mg/kg/injection, schedule: Q07DX005 (ip), vehicle: Klucel (hydroxypropylcellulose) (HPC)) 59 % of control; (endpoint: median tumor weight (est.), dose: 2.0 mg/kg/injection, schedule: Q07DX005 (ip), vehicle: Klucel (hydroxypropylcellulose) (HPC)) 71 % of control; (endpoint: median tumor weight (est.), dose: 3.0 mg/kg/injection, schedule: Q07DX005 (ip), vehicle: Klucel (hydroxypropylcellulose) (HPC)) 105 % of control; (endpoint: median tumor weight (est.), dose: 4.0 mg/kg/injection, schedule: Q07DX005 (ip), vehicle: Klucel (hydroxypropylcellulose) (HPC)) 114 % of control; (endpoint: median tumor weight (est.), dose: 6.0 mg/kg/injection, schedule: Q07DX005 (ip), vehicle: Klucel (hydroxypropylcellulose) (HPC)) 124 % of control. The T/C reads like this: (endpoint: median tumor weight (est.), dose: 8.0 mg/kg/injection, schedule: Q07DX005 (ip), vehicle: Klucel (hydroxypropylcellulose) (HPC)) 36 % of control; (endpoint: median tumor weight (est.), dose: 12.0 mg/kg/injection, schedule: Q07DX005 (ip), vehicle: Klucel (hydroxypropylcellulose) (HPC)) 102 % of control; (endpoint: median tumor weight (est.), dose: 16.0 mg/kg/injection, schedule: Q07DX005 (ip), vehicle: Klucel (hydroxypropylcellulose) (HPC)) 14 % of control.
With `CN(C)N=Nc1ccccc1`, the T/C is 87 % of control under setting [4] and 78 % of control under setting [5].
`CCCCc1ccc(-n2c(C)c(COC(=O)NC)c(COC(=O)NC)c2C)cc1`: the T/C by setting is: (endpoint: median tumor weight (est.), dose: 6.25 mg/kg/injection, schedule: Q07DX005 (ip), vehicle: Klucel (hydroxypropylcellulose) (HPC)) 118 % of control; (endpoint: median tumor weight (est.), dose: 12.5 mg/kg/injection, schedule: Q07DX005 (ip), vehicle: Klucel (hydroxypropylcellulose) (HPC)) 63 % of control; under setting [4], 111 % of control; (endpoint: median tumor weight (est.), dose: 50.0 mg/kg/injection, schedule: Q07DX005 (ip), vehicle: Klucel (hydroxypropylcellulose) (HPC)) 56 % of control; under setting [5], 40 % of control.
